# According to patent US12497386B2, “Estrogen receptor-modulating compounds” (RADIUS PHARMACEUTICALS, INC., priority 2018, dated 2025):
# pIC50: −log10 of the molar value.
# Experiments:
# MCF-7 cells = experiment: MCF-7 Proliferation Inhibition Assay; format: cell-based, human; details: Homo sapiens, MCF7, 168 h, 10 pM dose of E2, 7 days incubation, CellTiterGlo viability
# Description: Proliferation Assay in MCF-7 and T47D Cells
# MCF-7 and T47D cells were stripped for 3 days in phenol red-free RPMI1640 media containing 10% charcoal-stripped fetal bovine serum (CS-FBS) and 1% Penicillin/streptomycin (P/S). Cells (volume of 90 μl/well) were seeded in 96 well plates at a density of 2500 cells/well for MCF-7 cells and 1500 cells/well for T47D cells. On the following day, plates were treated with the test compounds (10× concentration in media, volume of 10 μl/well added) both in the absence and in the presence of two doses of E2 (10 pM and 1 nM). The cells were incubated with test compounds for 7 days. The viability of the cells was assessed using CellTiterGlo (Promega, Cat #G7573) according to the manufacturer's instructions. Growth inhibition curves and IC50 values were calculated using the GraphPadPrism 6.0 software. Data values shown in Table 1 were obtained using the 10 pM dose of E2.
# [1] = tested on: E2-induced increase in uterine weight in immature rats; experiment: Immature Rat Uterine Assay; format: in vivo, Sprague-Dawley rat; details: oral dose of 3 mg/kg in combination with E2 (0.01 mg/kg), once daily for three consecutive days
# Description: Immature Rat Uterine Assay
# Sprague-Dawley rat pups were weaned at 19 days of age, randomized into groups (n=6), and administered vehicle (aqueous 20% HPBCD, 10% PEG400 in H2O), E2 (0.01 mg/kg), test compounds (0.1 mg/kg-3 mg/kg) in combination with E2 (0.01 mg/kg), either by subcutaneous injection or by oral gavage, once daily for three consecutive days. Twenty-four hours after the final dose, all animals were killed by carbon dioxide inhalation. Body weights and wet uterine weights were recorded for each animal. GraphPadPrism 6.0 software was used to analyze data.
SMILES,pIC50 (MCF-7 cells),wet uterine weight [1]
"Cc1ccccc1-c1c(F)c2c3cn[nH]c3ccc2n1Cc1ccc(CCNCCF)cc1 [Compound D-101, 2-Fluoro-N-(4-((8-fluoro-7-(o-tolyl)pyrrolo[3,2-e]indazol-6(3H)-yl)methyl)phenethyl)ethan-1-amine]",> 9.00,–
"Cc1ccccc1-c1c(F)c2c3cn[nH]c3ccc2n1Cc1ccc(CCNCCCF)cc1 [Compound D-102, 3-Fluoro-N-(4-((8-fluoro-7-(o-tolyl)pyrrolo[3,2-e]indazol-6(3H)-yl)methyl)phenethyl)propan-1-amine]",> 9.00,suppressed wet uterine weight to baseline
"COc1ccc(-c2c(F)c3cc(O)ccc3n2Cc2ccc(CCNCCF)cc2)c(C)c1 [Compound D-103, 3-Fluoro-1-(4-(2-((2-fluoroethyl)amino)ethyl)benzyl)-2-(4-methoxy-2-methylphenyl)-1H-indol-5-ol]",> 9.00,–
"COc1ccc(-c2c(F)c3cc(O)ccc3n2Cc2ccc(CCNCCCF)cc2)c(C)c1 [Compound D-104, 3-Fluoro-1-(4-(2-((3-fluoropropyl)amino)ethyl)benzyl)-2-(4-methoxy-2-methylphenyl)-1H-indol-5-ol]",> 9.00,–
"CCNCCc1ccc([C@@H]2c3ccc(O)cc3CC[C@@H]2c2ccccc2)cc1 [LA-18, (5R,6S)-5-(4-(2-(Ethylamino)ethyl)phenyl)-6-phenyl-5,6,7,8-tetrahydronaphthalen-2-ol]",> 9.00,–
"Oc1ccc2c(c1)CC[C@H](c1ccccc1)[C@@H]2c1ccc(CCNCC2CC2)cc1 [LA-19, (5R,6S)-5-(4-(2-((Cyclopropylmethyl)amino)ethyl)phenyl)-6-phenyl-5,6,7,8-tetrahydronaphthalen-2-ol]",> 9.00,–
"CCNCCc1ccc([C@@H]2c3ccc(O)cc3CC[C@@H]2c2ccccc2C)cc1 [LA-21, (5R,6S)-5-(4-(2-(Ethylamino)ethyl)phenyl)-6-(o-tolyl)-5,6,7,8-tetrahydronaphthalen-2-ol]",> 9.00,–
"Cc1ccccc1[C@H]1CCc2cc(O)ccc2[C@H]1c1ccc(CCNCC2CC2)cc1 [LA-22, (5R,6S)-5-(4-(2-((cyclopropylmethyl)amino)ethyl)phenyl)-6-(o-tolyl)-5,6,7,8-tetrahydronaphthalen-2-ol]",> 9.00,–
"CCNCCc1ccc(C2c3ccc(O)cc3CCC2c2ccc(C(C)C)cc2)cc1 (stereo not drawn) [LA-31, 5-(4-(2-(Ethylamino)ethyl)phenyl)-6-(4-isopropylphenyl)-5,6,7,8-tetrahydronaphthalen-2-ol]",> 9.00,–
"CCCNCCc1ccc(C2c3ccc(O)cc3CCC2c2ccc(C(C)C)cc2)cc1 (stereo not drawn) [LA-32, 6-(4-Isopropylphenyl)-5-(4-(2-(propylamino)ethyl)phenyl)-5,6,7,8-tetrahydronaphthalen-2-ol]",> 9.00,–
"CC(C)c1ccc(C2CCc3cc(O)ccc3C2c2ccc(CCNCC3CC3)cc2)cc1 (stereo not drawn) [LA-33, 5-(4-(2-((Cyclopropylmethyl)amino)ethyl)phenyl)-6-(4-isopropylphenyl)-5,6,7,8-tetrahydronaphthalen-2-ol]",> 9.00,–
